Measured values taken from publication PMC6901909, “Synergy Pattern of Short Cationic Antimicrobial Peptides Against Multidrug-Resistant Pseudomonas aeruginosa” (Frontiers in Microbiology, 2019).
Converted amounts (≈) assume the structure as drawn. Peptide text beside a SMILES is read from it.

Columns and labels:
Test in all cases: microbe, parasite or virus in culture
Type in all cases: cell-based, Pseudomonas aeruginosa
MDR P. aeruginosa PA 919 = conditions: MDR PA 919, 18 h
Experimental: (§1) We selected six different P. aeruginosa isolates that were described as MDR and had been isolated from clinical and municipal waste water ([Schwartz et al., 2006]). The minimal inhibitory concentration (MIC) was determined in a microdilution assay using Mueller-Hinton (MH) broth following a previously published protocol ([Wiegand et al., 2008]). Briefly, a twofold serial dilution of the antibiotics and peptides were prepared and added to a bacteria solution, resulting in 2–5 10^5 CFU/ml. The microtiter plates (polypropylene, Corning) were incubated for 18 h at 37°C and MICs were taken visually.

MDR P. aeruginosa PA253 = conditions: MDR PA253, 18 h
Experimental: as §1

P. aeruginosa PA01-wt = conditions: -wt, 18 h
Experimental: as §1

MDR P. aeruginosa PA 910 = conditions: MDR PA 910, 18 h
Experimental: as §1

With `CC[C@H](C)[C@H](NC(=O)[C@H](CCCNC(=N)N)NC(=O)[C@H](CC(C)C)NC(=O)[C@H](CCCNC(=N)N)NC(=O)[C@@H](N)C(C)C)C(=O)N[C@@H](CCCNC(=N)N)C(=O)N[C@H](C(=O)N[C@@H](C)C(=O)N[C@H](C(=O)N[C@H](C(=O)N[C@@H](CCCNC(=N)N)C(=O)N[C@@H](C)C(N)=O)[C@@H](C)CC)C(C)C)C(C)C` [Bac034] (H-VRLRIRVAVIRA-NH2) the “MIC against MDR isolates of PA, PA919” value (MDR P. aeruginosa PA 919) was 32 µM, the “MIC against MDR isolates of PA, PA253” value (MDR P. aeruginosa PA253) was 64 µM and the “MIC against PA01 wt” value (P. aeruginosa PA01-wt) was 32 µM (≈ 45.5 µg/mL).
In the case of `CC[C@H](C)[C@H](N)C(=O)N[C@@H](CC(C)C)C(=O)N[C@@H](CCCCN)C(=O)N[C@@H](Cc1c[nH]c2ccccc12)C(=O)N[C@@H](CCCCN)C(=O)N[C@@H](CCCCN)C(=O)NCC(=O)N[C@@H](Cc1c[nH]c2ccccc12)C(=O)N[C@@H](Cc1c[nH]c2ccccc12)C(=O)N[C@@H](CCCCN)C(=O)N[C@@H](Cc1c[nH]c2ccccc12)C(=O)N[C@@H](Cc1ccccc1)C(=O)N[C@@H](CCCNC(=N)N)C(N)=O` [Indopt 8] (H-ILKWKKGWWKWFR-NH2), the “MIC against MDR isolates of PA, PA919” value (MDR P. aeruginosa PA 919) is reported as 16 µM, the “MIC against MDR isolates of PA, PA253” value (MDR P. aeruginosa PA253) is reported as 8 µM and the “MIC against PA01 wt” value (P. aeruginosa PA01-wt) is reported as 4 µM (≈ 7.45 µg/mL).
In the case of `CC[C@H](C)[C@H](N)C(=O)N[C@@H](CC(C)C)C(=O)N[C@@H](CCCCN)C(=O)N[C@@H](Cc1c[nH]c2ccccc12)C(=O)N[C@@H](CCCCN)C(=O)N[C@@H](CCCNC(=N)N)C(=O)N[C@@H](CCCCN)C(=O)N[C@@H](Cc1c[nH]c2ccccc12)C(=O)N[C@@H](Cc1c[nH]c2ccccc12)C(=O)N[C@@H](CCCCN)C(=O)N[C@@H](Cc1c[nH]c2ccccc12)C(=O)N[C@@H](CCCNC(=N)N)C(=O)N[C@@H](CCCNC(=N)N)C(N)=O` [Indopt 9] (H-ILKWKRKWWKWRR-NH2), the “MIC against MDR isolates of PA, PA919” value (MDR P. aeruginosa PA 919) is reported as 16 µM, the “MIC against MDR isolates of PA, PA253” value (MDR P. aeruginosa PA253) is reported as 4 µM and the “MIC against PA01 wt” value (P. aeruginosa PA01-wt) is reported as 1 (1) μM.
In the case of `CC[C@H](C)[C@H](N)C(=O)N[C@@H](CC(C)C)C(=O)N[C@@H](CCCCN)C(=O)N[C@@H](Cc1c[nH]c2ccccc12)C(=O)N[C@@H](CCCCN)C(=O)N[C@H](C(=O)N[C@@H](CCCCN)C(=O)N[C@@H](Cc1c[nH]c2ccccc12)C(=O)N[C@@H](Cc1c[nH]c2ccccc12)C(=O)N[C@@H](CCCCN)C(=O)N[C@@H](Cc1c[nH]c2ccccc12)C(=O)N[C@@H](Cc1ccccc1)C(=O)N[C@@H](CCCNC(=N)N)C(N)=O)[C@@H](C)O` [Indopt 11] (H-ILKWKTKWWKWFR-NH2), the “MIC against MDR isolates of PA, PA919” value (MDR P. aeruginosa PA 919) is reported as 16 µM, the “MIC against MDR isolates of PA, PA253” value (MDR P. aeruginosa PA253) is reported as 4 µM and the “MIC against PA01 wt” value (P. aeruginosa PA01-wt) is reported as 2 µM (≈ 3.81 µg/mL).
For `CC[C@H](C)[C@H](NC(=O)[C@H](CCCCN)NC(=O)[C@H](CCCNC(=N)N)NC(=O)[C@H](Cc1c[nH]c2ccccc12)NC(=O)[C@H](Cc1c[nH]c2ccccc12)NC(=O)[C@@H](N)CCCNC(=N)N)C(=O)N[C@@H](Cc1c[nH]c2ccccc12)C(=O)N[C@@H](CCCCN)C(=O)N[C@@H](Cc1c[nH]c2ccccc12)C(N)=O` [LOP1] (H-RWWRKIWKW-NH2), the “MIC against MDR isolates of PA, PA919” value (MDR P. aeruginosa PA 919) was 2 to 4 µM, the “MIC against MDR isolates of PA, PA253” value (MDR P. aeruginosa PA253) was 8 µM and the “MIC against PA01 wt” value (P. aeruginosa PA01-wt) was 2 µM (≈ 2.89 µg/mL).
In the case of `CC[C@H](C)[C@H](NC(=O)[C@H](CCCNC(=N)N)NC(=O)[C@H](C)NC(=O)CNC(=O)[C@@H](N)CCCNC(=N)N)C(=O)N[C@H](C(=O)N[C@H](C(=O)N[C@H](C(=O)N[C@@H](CCCNC(=N)N)C(=O)N[C@H](C(=O)N[C@@H](C)C(=O)N[C@@H](CCCNC(=N)N)C(N)=O)C(C)C)[C@@H](C)CC)C(C)C)C(C)C` [Peptide G2] (H-RGARIVVIRVAR-NH2), the “MIC against MDR isolates of PA, PA919” value (MDR P. aeruginosa PA 919) is reported as 16 µM, the “MIC against MDR isolates of PA, PA253” value (MDR P. aeruginosa PA253) is reported as 32 µM and the “MIC against PA01 wt” value (P. aeruginosa PA01-wt) is reported as 32 µM (≈ 43.7 µg/mL).
For `CC[C@H](C)[C@H](NC(=O)[C@H](CCCNC(=N)N)NC(=O)[C@H](C)NC(=O)[C@H](CCCNC(=N)N)NC(=O)[C@@H](N)CCCNC(=N)N)C(=O)N[C@H](C(=O)N[C@H](C(=O)N[C@H](C(=O)N[C@@H](CCCNC(=N)N)C(=O)N[C@H](C(=O)N[C@@H](C)C(=O)N[C@@H](CCCNC(=N)N)C(N)=O)C(C)C)[C@@H](C)CC)C(C)C)C(C)C` [Peptide R2] (H-RRARIVVIRVAR-NH2), the “MIC against MDR isolates of PA, PA919” value (MDR P. aeruginosa PA 919) was 16 µM, the “MIC against MDR isolates of PA, PA253” value (MDR P. aeruginosa PA253) was 32 µM and the “MIC against PA01 wt” value (P. aeruginosa PA01-wt) was 32 µM (≈ 46.8 µg/mL).
For `CC[C@H](C)[C@H](NC(=O)[C@H](CCCNC(=N)N)NC(=O)[C@H](Cc1c[nH]c2ccccc12)NC(=O)[C@H](CC(C)C)NC(=O)[C@@H](N)CCCNC(=N)N)C(=O)N[C@H](C(=O)N[C@H](C(=O)N[C@H](C(=O)N[C@@H](CCCNC(=N)N)C(=O)N[C@H](C(=O)N[C@@H](C)C(=O)N[C@@H](CCCNC(=N)N)C(N)=O)C(C)C)[C@@H](C)CC)C(C)C)C(C)C` [Peptide W3] (H-RLWRIVVIRVAR-NH2), the “MIC against PA910 in μM (peptides, Table 4)” value (MDR P. aeruginosa PA 910) was 32 µM (≈ 49.2 µg/mL).
For `CC[C@H](C)[C@H](NC(=O)[C@H](CCCNC(=N)N)NC(=O)[C@H](Cc1c[nH]c2ccccc12)NC(=O)[C@H](CCCNC(=N)N)NC(=O)[C@@H](N)C(C)C)C(=O)N[C@@H](CCCNC(=N)N)C(=O)N[C@H](C(=O)N[C@@H](C)C(=O)N[C@H](C(=O)N[C@H](C(=O)N[C@@H](CCCNC(=N)N)C(=O)N[C@@H](C)C(N)=O)[C@@H](C)CC)C(C)C)C(C)C` [S-W3] (H-VRWRIRVAVIRA-NH2), the “MIC against PA910 in μM (peptides, Table 4)” value (MDR P. aeruginosa PA 910) was 16 µM (≈ 23.9 µg/mL).
For `CC[C@H](C)[C@H](NC(=O)[C@H](CCCNC(=N)N)NC(=O)[C@H](Cc1c[nH]c2ccccc12)NC(=O)[C@H](CCCNC(=N)N)NC(=O)[C@@H](N)CCCNC(=N)N)C(=O)N[C@H](C(=O)N[C@H](C(=O)N[C@H](C(=O)N[C@@H](CCCNC(=N)N)C(=O)N[C@H](C(=O)N[C@@H](CCCNC(=N)N)C(=O)N[C@@H](CCCNC(=N)N)C(N)=O)C(C)C)[C@@H](C)CC)C(C)C)C(C)C` [Sub 3] (H-RRWRIVVIRVRR-NH2), the “MIC against MDR isolates of PA, PA919” value (MDR P. aeruginosa PA 919) was 16 µM, the “MIC against MDR isolates of PA, PA253” value (MDR P. aeruginosa PA253) was 8 µM and the “MIC against PA01 wt” value (P. aeruginosa PA01-wt) was 8 µM (≈ 13.3 µg/mL).
